Results on one compound are retold here after patent US20230312652A1, “NOVEL PEPTIDES AND USES THEREOF” (Aarhus Universitet, priority 2020, published 2023).

Where a SMILES comes first, the peptide text is derived from it.

In series [1] the test system is BDNF, PGC1a and TFEB in GM04719 fibroblasts. Put plainly: BDNF, PGC1a and TFEB levels in HD patient-derived fibroblasts, western blotting. Particulars: 1 uM. Format: cell-based, human. How it is done:
To validate the therapeutic potential of P1 in Huntington's Disease, we likewise assessed whether P1 could increase the three distinct pathways in fibroblasts derived from a HD patient. The fibroblasts were bought from Coriell Biobank. The patient-derived fibroblasts, named GM04719, was sampled from a person with clinical onset […]. The patient has 44-CAG repeats in their HTT-gene.
To assess target engagement by P1, 30,000-50,000 fibroblasts were seeded per well in a 96-well plate. The following day, the cells were treated with 1 uM of P1 and incubated at 37° C. and 5% CO2 at timepoints between 2-24 hours. Hereafter, the cells were lysed in RIPA lysis buffer containing cOmplete cocktail protease inhibitor. BDNF, PGC1a and TFEB levels were analysed by western blotting normalized to beta-actin.

Series [2] deals with HTT in GM01650E fibroblasts. Nature of the series: Total HTT levels in fibroblasts from a healthy individual (GM01650E). Format: cell-based, human. Particulars: 1 uM, healthy cell line, 2-4 hours. How it is done: GM04719 was seeded at 30,000-50,000 per well in a 96-well. The following day, the cells were treated with 1 uM of P1 and incubated at 37° C. and 5% CO2 at timepoints 0-24 hours. Hereafter, the cells were lysed in RIPA lysis buffer containing cOmplete cocktail protease inhibitor. Total Huntingtin levels were analysed using antibody mab2166 (Sigma-Aldrich) by western blotting and normalized to beta-actin. To determine, whether P1 also clears the healthy allele, we further assessed levels of total HTT in fibroblast derived from a healthy individual (GM01650E), bought from Coriell Biobank.

The test system of series [3] is R6/2 mice (mouse model of Huntington's). Put plainly: Stereological analysis of regional brain volume in R6/2 mice. Format: in vivo. Particulars: 13 mg/kg SC daily, 8 to 12 weeks of age. How it is done:
The brain was cut using a fine razor blade and one hemisphere (right) was directly put into ice-cold 4% PFA in PBS for 24 hours, and then transferred to a 30% sucrose PBS solution for 48 hours and stored at 4° C.
The PFA fixed hemispheres were imbedded in TissueTec and sliced on a cryostat at 50 μm thickness. For stereology, every 5th section was sampled using the principle of systematic random sampling, giving a section sampling fraction (SSF)=1/5.
The sections were mounted on chrome-gelatin-coated slides and Nissl stained with a 0.25% thionine solution (thionin, Sigma T3387). Image acquisition and analysis was performed using the newCAST system (Visiopharm, Horsholm, Denmark). This system consists of an Olympus light microscope (Olympus BX50, Olympus, Denmark) modified for stereology with a digital camera (PixeLINK PLA686C, Canada) and a motorized microscope stage (Prior H138 with controller H29, Cambridge, UK). The newCAST software was interfaced to the digital camera superimposing the counting frames on the live images.
The volume estimation was carried out using the Cavalieri principle for quantifying the total volume of the hippocampus, striatum and mid-part of the cortex (6 slides used for this) using a 4× lens.

A short description of series [4]: Plasma binding, mouse plasma, ultracentrifugation. Format: in vitro ADME. How it is done:
For plasma binding, 2 μM P1 or Warfarin (positive control) were added to mouse or human plasma. After 30 minutes incubation at 37° C., samples where ultracentrifuged for 4 hours to generate protein-free samples for LCMS analysis. In parallel, plasma was incubated for 4.5 h to determine total levels after incubation. Plasma binding was calculated as % Bound=100*(1−F/T4.5), where F is concentration of free ligand and T4.5 is the concentration of total ligand after incubation.

The nature of series [5]: Mouse brain homogenate binding. Format: in vitro ADME. Particulars: 2 μM. How it is done:
Mouse brain homogenate was incubated with 2 μM of P1 or 7-Ethoxycoumarin (positive control of degradation). Enzymatic reactions were stopped at timepoints between 0-240 min and samples analysed by LCMS. For test with protease inhibitors, brain homogenate was pre-incubated for 30 minutes with protease inhibitors prior to incubation with P1. For brain homogenate binding, 2 μM of P1 or propranolol (positive control) were added to mouse brain homogenate and incubated at 37° C. for 30 minutes. To prepare the protein-free samples (F samples) to be used for unbound determination, an aliquot of the pre-incubated matrix containing test compound or control compound was transferred to ultracentrifuge tubes and subjected to ultracentrifugation at 37° C., 35000 rpm for 4 hrs. In parallel, brain homogenate was incubated for 4.5 hrs to determine total levels after incubation.

A short description of series [6]: Liver microsome stability, human. Format: in vitro ADME. Particulars: 2 μM, up to 60 minutes. How it is done:
Reactions were stopped at timepoints between 0-60 min. and samples analysed by LCMS.
(Microsomes from liver hold many membrane-bound enzymes, among them those of drug oxidation.)

Series [7] deals with GRN+/- hippocampal neurons. Nature of the series: Dendritic branching of GRN+/- hippocampal neurons. Format: cell-based, mouse. Particulars: 1 uM, 72 hours. How it is done:
To further validate the therapeutic potential of peptide P1 in frontotemporal dementia, its neurotrophic activity in GRN heterozygous hippocampal neurons isolated from p0 mice was investigated. Heterozygous loss of function mutations in the progranulin gene, GRN, cause frontotemporal dementia^68. To assess this, we measured the dendritic branching of GRN+/− hippocampal neurons in vitro following treatment. 10000 neurons were seeded per coverslip. After 24 hours the medium was changed to medium containing 1 uM of peptide P1. Hereafter, the cells were incubated at 37° C. for 72 hours before being fixed in 4% PFA for 20 minutes at room temperature. The neurons were subsequently stained against MAP2 to determine cell morphology. Images were taken using a confocal microscope and the neurite branches were analysed using Zen Image Processing (Carl Zeiss). The total number of branches were calculated per neuron. Student's t-test was used for statistical analysis.

As to `CSCC[C@@H]1NC(=O)[C@H](C(C)C)NC(=O)[C@H](CC(=O)O)NC(=O)[C@H](CCC(=O)O)NC(=O)[C@H](CCC(=O)O)NC(=O)[C@H](Cc2c[nH]cn2)NC(=O)[C@H](CCC(=O)O)NC(=O)[C@H](C(C)C)NC(=O)[C@@H]2CCCN2C(=O)[C@H](CCC(=O)O)NC(=O)[C@H]([C@@H](C)O)NC1=O` [Peptide P1, [MTEPVEHEEDV]] (cyclo(MTEPVEHEEDV)), in series [1] (6 hours of treatment), the PGC1a level result is given as “upregulated” and the TFEB level result is on record as “upregulated”. Besides, the BDNF level entry in series [1] (after 24 hours) was “significantly upregulated”. For the same compound, the “total HTT levels” value in series [2] is recorded as “increasing the total HTT levels”. Moreover, in series [3], the cortical volume result is recorded as “tendency of increasing” and the hippocampal volume entry is listed as “tendency of increasing”. Also, the plasma binding result in series [4] (2 μM) was “very low plasma binding”. For the same compound, in series [4] (read-out: compound unbound in plasma), the fraction unbound at 30 min, 2 μM is over 0.75. For the same compound, the brain homogenate binding result in series [5] is “less than 20%”. For the same compound, the “clearance and stability in liver microsomes” value in series [6] was “low clearance and high stability”. In addition, the “number of branches per neuron” value in series [7] is on record as “increased branching”.
